Results from ChEMBL document CHEMBL1136602 (Bioorg Med Chem Lett, 2003).

Columns and labels:
Mus musculus [1] = assay: Anticocaine activity was assessed through attenuation of convulsions caused by the intraperitoneal administration of cocaine 60 mg/kg in mice; assay type: functional
[2] = target: Sigma non-opioid intracellular receptor 1 (Homo sapiens, UniProt Q99720); assay: Binding affinity towards Sigma-1 receptor
Sigma 2 receptor = assay: Binding affinity towards Sigma-2 receptor
Mus musculus [3] = assay: Anticocaine activity was assessed through attenuation of convulsions caused by the intraperitoneal administration of cocaine 60 mg/kg in mice; Agonist activity exacerbated the convulsive effects of cocaine; assay type: functional, organism-based; set-up: dose 60 mg/kg; details: filed as agonist

Sequence of Sigma non-opioid intracellular receptor 1 (Q99720 whole entry): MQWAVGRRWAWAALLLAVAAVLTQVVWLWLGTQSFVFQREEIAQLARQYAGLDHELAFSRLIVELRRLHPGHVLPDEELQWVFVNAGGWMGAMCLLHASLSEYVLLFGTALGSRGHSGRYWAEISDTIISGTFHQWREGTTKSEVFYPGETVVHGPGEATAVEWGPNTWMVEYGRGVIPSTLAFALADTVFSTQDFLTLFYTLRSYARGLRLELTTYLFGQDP

Compound | AD50 (Mus musculus [1]) [mg/kg] | Ki [2] [nM] | Ki (Sigma 2 receptor) [nM] | AD50 (Mus musculus [3])
COc1cccc(CN2CCN(Cc3ccccc3)CC2)c1 | 17 | 0.39 | 108 | –
c1ccc(CN2CCN(Cc3ccccc3)CC2)cc1 | 23 | – | 1270 | –
Clc1ccc(CN2CCN(Cc3ccccc3)CC2)c(Cl)c1 | 16 | 7.6 | 123 | –
Clc1ccccc1CN1CCN(Cc2ccccc2)CC1 | 15 | 5.3 | 527 | –
Clc1ccc(CN2CCN(Cc3ccccc3)CC2)cc1 | 29 | 1.4 | 187 | –
COc1ccc(CN2CCN(Cc3ccccc3)CC2)cc1 | 27 | 0.47 | 161 | –
CN(CCc1ccc(Cl)c(Cl)c1)CCN1CCCC1 | 2 | – | 8 | –
Clc1cccc(CN2CCN(Cc3ccccc3)CC2)c1 | 8 | 0.46 | 56.4 | –
Clc1ccc(CN2CCN(Cc3ccccc3)CC2)cc1Cl | – | 0.58 | 7.54 | Agonist activity exacerbated the convulsive effects of cocaine
